Measured values as given in PubChem BioAssay AID1963862 (Molecular Pharmacology Branch, DTP, NCI, 2024).

System: KRAS patient-derived spheroids with HUVEC/MSC, viability
Experiment: Anticancer human tumor 941728-121-R-J1-PDC patient-derived lung adenocarcinoma cell line growth inhibition [KRAS2]
Conditions: for IC50: curve of first compound; for viability, T/C: stronger effect = lower value
From the text: Multicellular complex tumor spheroid response to RAS pathway inhibitors in combination with a targeted agents in patient-derived cell lines with oncogenic KRAS variants from multiple cancer types
A high-throughput screen of multi-cell type tumor spheroids was designed to identify active combinations of targeted small molecules and KRAS pathway inhibitors. Complex spheroids include a stromal component modeled by human endothelial cells (HUVEC) and fibroblasts modeled by human mesenchymal stem cells (MSCs). The concentration ranges selected for each drug and investigational agent were based upon clinically achievable concentrations if the clinical Cmax of the agent was known.
Compounds. The drugs and investigational agents: BI-3406 (NSC825286), BAY-293 (NSC824723), batoprotafib (TNO155; NSC825523), sotorasib (AMG 510; NSC818433), MRTX1257 (NSC819558), elimusertib (BAY 1895344; NSC800525), molibresib (GSK525762; NSC774829), temuterkib (LY3214996; NSC803410), venetoclax (NSC766270), alisertib (NSC759677), olaparib (NSC753686), talazoparib (NSC767125), erdafitinib (NSC781556), ipatasertib (NSC767898), cabozantinib (NSC761068), nintedanib (NSC756659), abemaciclib (NSC768073), docetaxel (NSC628503), trametinib (NSC758246), and sapanisertib (NSC764658) were obtained from the National Cancer Institute (NCI) Developmental Therapeutics Program Chemical Repository. The FDA-approved anticancer drug set is available from the Developmental Therapeutics Program. […] The stock solutions were prepared in dimethyl sulfoxide (DMSO, Sigma-Aldrich, St. Louis, MO, cat. D2650) at 800-fold the tested concentration and stored at -70 degrees C prior to their use. All drugs and investigational agents were tested over a range starting from a high concentration at or near the clinical Cmax and decreasing in half-log increments. If the clinical Cmax for an agent had not been determined, the highest concentration tested was 10 microM.
Cell Culture. All cells were maintained in an incubator at 37 degrees C and 5% CO2 with 95% humidity. The PDC lines were cultured according to standard operating procedures established by the NCI PDMR (https://pdmr.cancer.gov/sops/default.htm). Briefly, all PDCs were thawed and cultured in Matrigel-coated flasks prepared with a working solution of 1X Ham's F-12 nutrient mix, without supplementation (Invitrogen, Waltham, MA, cat. 11765054), 100 U/mL penicillin-streptomycin (Invitrogen, cat. 15140122), and 2.5% Matrigel (Corning Inc., Corning, NY, cat. 354248) for the first three passages. All PDCs were cultured in complete DMEM/F-12 media containing advanced DMEM/F-12 (Invitrogen, cat. 12634028), 4.9% defined fetal bovine serum, heat inactivated (HyClone Laboratories Inc., Logan, UT, cat. SH30070.03HI), 389 ng/mL hydrocortisone (Sigma-Aldrich, cat. H4001), 9.7 ng/mL human EGF recombinant protein (Invitrogen, cat. PHG0313), 23.4 microg/mL adenine (Sigma-Aldrich, cat. A2786), 97.3 U/mL penicillin-streptomycin (Invitrogen, cat. 15140122), 1.9 mM L-glutamine (Invitrogen, cat. 25030081), and 9.7 microM Y-27632 dihydrochloride (Tocris Bioscience, Bristol, United Kingdom, cat. 1254). The PDCs were cultured in complete DMEM/F12 media without 9.7 microM Y-27632 dihydrochloride for at least two passages prior to the screen. The established cell line HOP-62 was cultured in RPMI 1640 medium, HEPES (Invitrogen, cat. 22400105) with 10% defined fetal bovine serum (HyClone Laboratories Inc., cat. SH30070.03) and 2 mM L-glutamine (Invitrogen, cat. 25030081). The pooled donor HUVEC were cultured in endothelial cell growth medium 2 (PromoCell, Heidelberg, Germany, cat. C-22011) and the hMSC were cultured in mesenchymal stem cell growth medium 2 (PromoCell, cat. C-28009). For all experiments, HUVEC and hMSC were used at passages </=5, while the malignant cell lines were used at passages </=15. […]

[1] = second compound 0.1 µM, first compound 0.01 µM
[2] = second compound 0.1 µM, first compound 0.0316 µM
[3] = second compound 0.1 µM, first compound 0.1 µM
[4] = second compound 0.1 µM, first compound 0.316 µM
[5] = second compound 0.1 µM, first compound 1 µM
[6] = second compound 0.1 µM, first compound 3.16 µM
[7] = second compound 0.316 µM, first compound 0.01 µM
[8] = second compound 0.316 µM, first compound 0.0316 µM
[9] = second compound 0.316 µM, first compound 0.1 µM
[10] = second compound 0.316 µM, first compound 0.316 µM
[11] = second compound 0.316 µM, first compound 1 µM
[12] = second compound 0.316 µM, first compound 3.16 µM
[13] = second compound 1 µM, first compound 0.01 µM
[14] = second compound 1 µM, first compound 0.0316 µM
[15] = second compound 1 µM, first compound 0.1 µM
[16] = second compound 1 µM, first compound 0.316 µM
[17] = second compound 1 µM, first compound 1 µM
[18] = second compound 1 µM, first compound 3.16 µM
[19] = second compound 3.16 µM, first compound 0.01 µM
[20] = second compound 3.16 µM, first compound 0.0316 µM
[21] = second compound 3.16 µM, first compound 0.1 µM
[22] = second compound 3.16 µM, first compound 0.316 µM
[23] = second compound 3.16 µM, first compound 1 µM
[24] = second compound 3.16 µM, first compound 3.16 µM
[25] = second compound 10 µM, first compound 0.01 µM
[26] = second compound 10 µM, first compound 0.0316 µM
[27] = second compound 10 µM, first compound 0.1 µM
[28] = second compound 10 µM, first compound 0.316 µM
[29] = second compound 10 µM, first compound 1 µM
[30] = second compound 10 µM, first compound 3.16 µM
[31] = second compound 0.1 µM, first compound 10 µM
[32] = second compound 0.316 µM, first compound 10 µM
[33] = second compound 1 µM, first compound 10 µM
[34] = second compound 3.16 µM, first compound 10 µM
[35] = second compound 10 µM, first compound 10 µM
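Also: spheroids exposed to agents for seven days before readout.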

Structure (SMILES): CC(=O)OC12COC1CC(O)C1(C)C(=O)C(O)C3=C(C)C(OC(=O)C(O)C(NC(=O)OC(C)(C)C)c4ccccc4)CC(O)(C(OC(=O)c4ccccc4)C21)C3(C)C (stereo not given) + C=CC(=O)N1CCN(c2nc(=O)n(-c3c(C)ccnc3C(C)C)c3nc(-c4c(O)cccc4F)c(F)cc23)C(C)C1
- IC50 (second compound 0.1 µM): < 0.01 µM
- IC50 (second compound 0.316 µM): < 0.01 µM
- IC50 (second compound 1 µM): < 0.01 µM
- IC50 (second compound 3.16 µM): < 0.01 µM
- IC50 (second compound 10 µM): < 0.01 µM
- viability, T/C [1]: 19.7%
- viability, T/C [2]: 17.1%
- viability, T/C [3]: 19.8%
- viability, T/C [4]: 18.1%
- viability, T/C [5]: 21.7%
- viability, T/C [6]: 20.2%
- viability, T/C [7]: 18.4%
- viability, T/C [8]: 17.4%
- viability, T/C [9]: 17.4%
- viability, T/C [10]: 20.2%
- viability, T/C [11]: 20.4%
- viability, T/C [12]: 18.3%
- viability, T/C [13]: 16.6%
- viability, T/C [14]: 19.2%
- viability, T/C [15]: 16.4%
- viability, T/C [16]: 19.1%
- viability, T/C [17]: 20.6%
- viability, T/C [18]: 20.1%
- viability, T/C [19]: 16.4%
- viability, T/C [20]: 21.9%
- viability, T/C [21]: 20.9%
- viability, T/C [22]: 19.5%
- viability, T/C [23]: 23.8%
- viability, T/C [24]: 19%
- viability, T/C [25]: 25.9%
- viability, T/C [26]: 24%
- viability, T/C [27]: 29.5%
- viability, T/C [28]: 26.2%
- viability, T/C [29]: 28.8%
- viability, T/C [30]: 25.5%

Structure (SMILES): CN(C)C/C=C/C(=O)Nc1cc2c(Nc3ccc(F)c(Cl)c3)ncnc2cc1O[C@H]1CCOC1 + C=CC(=O)N1CCN(c2nc(=O)n(-c3c(C)ccnc3C(C)C)c3nc(-c4c(O)cccc4F)c(F)cc23)C(C)C1
- IC50 (second compound 0.1 µM): < 0.000316 µM
- IC50 (second compound 0.316 µM): < 0.000316 µM
- IC50 (second compound 1 µM): < 0.000316 µM
- IC50 (second compound 3.16 µM): < 0.000316 µM
- IC50 (second compound 10 µM): < 0.000316 µM
- viability, T/C (second compound 0.1 µM, first compound 0.000316 µM): 18.1%
- viability, T/C (second compound 0.1 µM, first compound 0.001 µM): 17.1%
- viability, T/C (second compound 0.1 µM, first compound 0.00316 µM): 16.2%
- viability, T/C [1]: 15.5%
- viability, T/C [2]: 15.9%
- viability, T/C [3]: 14.3%
- viability, T/C (second compound 0.316 µM, first compound 0.000316 µM): 17%
- viability, T/C (second compound 0.316 µM, first compound 0.001 µM): 17.6%
- viability, T/C (second compound 0.316 µM, first compound 0.00316 µM): 15.6%
- viability, T/C [7]: 15.3%
- viability, T/C [8]: 16.7%
- viability, T/C [9]: 16.4%
- viability, T/C (second compound 1 µM, first compound 0.000316 µM): 20.6%
- viability, T/C (second compound 1 µM, first compound 0.001 µM): 19.9%
- viability, T/C (second compound 1 µM, first compound 0.00316 µM): 18.1%
- viability, T/C [13]: 15.7%
- viability, T/C [14]: 16.5%
- viability, T/C [15]: 15.9%
- viability, T/C (second compound 3.16 µM, first compound 0.000316 µM): 21.5%
- viability, T/C (second compound 3.16 µM, first compound 0.001 µM): 20.9%
- viability, T/C (second compound 3.16 µM, first compound 0.00316 µM): 19.4%
- viability, T/C [19]: 17.9%
- viability, T/C [20]: 18.9%
- viability, T/C [21]: 17.3%
- viability, T/C (second compound 10 µM, first compound 0.000316 µM): 26.3%
- viability, T/C (second compound 10 µM, first compound 0.001 µM): 22.5%
- viability, T/C (second compound 10 µM, first compound 0.00316 µM): 23.6%
- viability, T/C [25]: 17.7%
- viability, T/C [26]: 20.7%
- viability, T/C [27]: 19%

Structure (SMILES): COC(=O)c1ccc2c(C(=Nc3ccc(N(C)C(=O)CN4CCN(C)CC4)cc3)c3ccccc3)c(O)[nH]c2c1 + C=CC(=O)N1CCN(c2nc(=O)n(-c3c(C)ccnc3C(C)C)c3nc(-c4c(O)cccc4F)c(F)cc23)C(C)C1
- IC50 (second compound 0.1 µM): < 0.0316 µM
- IC50 (second compound 0.316 µM): < 0.0316 µM
- IC50 (second compound 1 µM): < 0.0316 µM
- IC50 (second compound 3.16 µM): < 0.0316 µM
- IC50 (second compound 10 µM): < 0.0316 µM
- viability, T/C [2]: 24.5%
- viability, T/C [3]: 19.7%
- viability, T/C [4]: 16.4%
- viability, T/C [5]: 12.7%
- viability, T/C [6]: 10.2%
- viability, T/C [31]: 7.41%
- viability, T/C [8]: 22.8%
- viability, T/C [9]: 20.1%
- viability, T/C [10]: 18.5%
- viability, T/C [11]: 12.8%
- viability, T/C [12]: 8.05%
- viability, T/C [32]: 6.62%
- viability, T/C [14]: 26.3%
- viability, T/C [15]: 21.2%
- viability, T/C [16]: 16.8%
- viability, T/C [17]: 14.4%
- viability, T/C [18]: 7.55%
- viability, T/C [33]: 5.43%
- viability, T/C [20]: 27.1%
- viability, T/C [21]: 25.1%
- viability, T/C [22]: 20.8%
- viability, T/C [23]: 17.8%
- viability, T/C [24]: 6.67%
- viability, T/C [34]: 8.37%
- viability, T/C [26]: 41.2%
- viability, T/C [27]: 30.2%
- viability, T/C [28]: 31.6%
- viability, T/C [29]: 29.6%
- viability, T/C [30]: 4.3%
- viability, T/C [35]: 0.23%

Structure (SMILES): O=C(c1cc(Cc2n[nH]c(=O)c3ccccc23)ccc1F)N1CCN(C(=O)C2CC2)CC1 + C=CC(=O)N1CCN(c2nc(=O)n(-c3c(C)ccnc3C(C)C)c3nc(-c4c(O)cccc4F)c(F)cc23)C(C)C1
- IC50 (second compound 0.1 µM): < 0.0316 µM
- IC50 (second compound 0.316 µM): < 0.0316 µM
- IC50 (second compound 1 µM): < 0.0316 µM
- IC50 (second compound 3.16 µM): < 0.0316 µM
- IC50 (second compound 10 µM): < 0.0316 µM
- viability, T/C [2]: 29.5%
- viability, T/C [3]: 24.6%
- viability, T/C [4]: 21.9%
- viability, T/C [5]: 19.5%
- viability, T/C [6]: 21.1%
- viability, T/C [31]: 23.8%
- viability, T/C [8]: 28.2%
- viability, T/C [9]: 33.6%
- viability, T/C [10]: 24.4%
- viability, T/C [11]: 19.8%
- viability, T/C [12]: 24.2%
- viability, T/C [32]: 25.2%
- viability, T/C [14]: 34.2%
- viability, T/C [15]: 34.4%
- viability, T/C [16]: 33.8%
- viability, T/C [17]: 29.3%
- viability, T/C [18]: 24.7%
- viability, T/C [33]: 26.7%
- viability, T/C [20]: 35.2%
- viability, T/C [21]: 34.2%
- viability, T/C [22]: 36%
- viability, T/C [23]: 30.9%
- viability, T/C [24]: 34.6%
- viability, T/C [34]: 35.3%
- viability, T/C [26]: 39.3%
- viability, T/C [27]: 43.3%
- viability, T/C [28]: 42.1%
- viability, T/C [29]: 43.2%
- viability, T/C [30]: 45%
- viability, T/C [35]: 48.2%
